The molecules below were run on spores of Bacillus subtilis (assay: Sterilization effect on Bacillus subtilis spores by total viable cell count). Settings: direct mechanism (surfactant ingredients) or indirect mechanism (germination inducers), ingredients acting jointly within the extract.
Experimental: Bacillus subtilis spores were selected for use in an antimicrobial test against a spore-forming microorganism.
Vegetative cells of Bacillus subtilis ATCC 6633 were sub-cultured, streaked onto tryptic soy agar (TSA) plates, and incubated at 30° C. for 48 hrs. The plates were then stored at a low temperature of 5° C. and used as a seed culture. After the seed culture was identified to have no morphological abnormality by microscopic observation, it was spread onto a nutrient agar plate containing magnesium sulfate (NAMS), and incubated at 30° C. for 48 hrs. After 10^10-10^12 spores had emerged, the plate was washed with physiological saline, and the spores were scratched with a platinum loop and transferred into a sterile tube. The spores were then centrifuged at 4° C. at 12,000 rpm for 2 min, and this centrifugation was carried out once more. After being microscopically observed to ensure the state of the spores, the pellet was subjected to on-off ultrasonication for 5 min to destroy only the vegetative cells, and was then centrifuged again. Spore formation was further confirmed by a Dorner method, and the spores were stored at −20° C. until use for an antimicrobial test.
The antimicrobial plant materials were extracted with 75% ethanol, concentrated in a vacuum, and freeze-dried to provide aqueous or powdered antimicrobial materials. […] An antimicrobial test against spores of Bacillus subtilis, the representative spore-forming microorganism, was performed by optical density analysis at 600 nm and by counting of the total number of viable cells grown on a nutrient agar plate.
Optical density analysis is a method of indirectly analyzing the degree of growth of vegetative cells and spores by measuring OD values at 600 nm for vegetative cells and spores cultured in tryptic soy broth (TSB) at 37° C. for 18 hrs. The plant materials were primarily screened for candidates considered effective in sterilization by optical density analysis. Then, the candidates were further assessed for their antimicrobial effects by viable cell count. In detail, a spore suspension was mixed with physiological saline and a natural antimicrobial material (1% final concentration). The mixture was agitated at 30° C. for 3 hrs, and was then centrifuged at 12,000 rpm. After the supernatant, considered to contain the added antimicrobial material, was discarded, the pellet remaining in an Ependorf tube was covered with distilled water and centrifuged again to eliminate residual antimicrobial material. This washing step was repeated three times to obtain only spores treated with a natural antimicrobial material. This was done to evaluate the sterilization effects of the natural antimicrobial materials on pure spore samples.

Question: Which “sterilization effect attributed to ingredients of the extract” value (shortened to “sterilization effect attributed”) does the source give for `C[C@H](N)C(=O)O` [alanine] here?
Answer: about 10^2

Question: Which “sterilization effect attributed” value does the source give for `CC(=O)OC1CC2CCC1(C)C2(C)C` (centres unmarked) [bornyl acetate] here?
Answer: about 10^1

Question: `CC(=O)OC/C=C(\C)CCC=C(C)C` [geranyl acetate] was tested. Which “sterilization effect attributed” value did it give?
Answer: about 10^1

Question: With `OC[C@@H](O)[C@@H](O)[C@H](O)[C@H](O)CO` [mannitol] as the molecule, how does the “sterilization effect attributed” value read?
Answer: about 10^2

Question: Which “sterilization effect attributed” value does the source give for `OC[C@@H](O)[C@H](O)[C@@H](O)CO` [xylitol] here?
Answer: about 10^2

From patent publication US7927632B2, “Compositions for sterilizing spores of spore-forming microorganisms comprising the extracts of torilidis fructus” (CJ Cheiljedang Corporation, priority 2005, dated 2011)
